From patent publication US20070202188A1, “Use of alkene carboxlic acid n alkylamides as flavouring agents” (priority 2003, published 2007)

Assays:
[1] = tested on: group of 6-8 testers; assay: Sensorial evaluation (tasting of sugar solution by a group of testers); type: in vivo; details: approx. 5 ml swallowed
Procedure: The substance to be tasted (see below) was dissolved in ethanol and the ethanolic solution was then diluted with 11% strength sugar solution (final concentration: c). For tasting, in each case approx. 5 ml of the sugar solution was swallowed. If the threshold value of the substance was known, a value just above the threshold value was chosen for the tasting. A group of 6-8 testers tasted the solutions.

[2] = tested on: oral cavity; details: in vivo; cited from earlier work
[3] = tested on: mouth; details: in vivo; cited from earlier work
[4] = tested on: mouse; details: mouse oral; cited from earlier work
[5] = cited from earlier work
[6] = c=10 ppm in 11% strength sugar solution

In the case of `CCCCC/C=C/C=C/C(=O)NCC(C)C` [2E,4E-decadienoic acid N-isobutylamide], the sensorial profile [1, 6] is given as “saliva-promoting, fatty, fruity, slightly tingling, slightly piquant” and the “sensorial effect described in the literature” value [2] is given as “chiefly shows an anaesthetizing effect”.
For 2E-tetradecenoic acid N-isobutylamide, the “sensorial effect described in the literature” value [2] is listed as “no piquant taste was found”.
For “2E-decenoic acid N-(2-methylbutyl)amide [Example 2]”, the sensorial profile [1, 6] was “slightly piquant, saliva-promoting, tingling, mild heat sensation”.
In the case of `CCCCCC/C=C/CC(=O)NCC(C)C` [Example 4, 3E-decenoic acid N-isobutylamide], the sensorial profile [1, 6] is reported as “tickling piquant taste, builds up slowly in the pharynx, slightly bitter”.
With `COc1cc(CNC(=O)CCCCCCC(C)C)ccc1O` [dihydrocapsaicin] the sensorial profile ([1]; c=100 ppb in 11% strength sugar solution) was “action starts with a slight delay in the pharyngeal cavity, aggressive, burning piquant taste (chilli, slight evolution of heat)”.
For `O=C(/C=C/C=C/c1ccc2c(c1)OCO2)N1CCCCC1` [piperine, 1-piperoylpiperidine], the intrinsic taste [3] is listed as “intensive intrinsic taste reminiscent of pepper” and the “relative piquant taste compared with capsaicin” value [3] is listed as “approx. 1%”.
In the case of `COc1cc(CNC(=O)CCCC/C=C/C(C)C)ccc1O` [capsaicin, N-(4-hydroxy-3-methoxybenzyl)-8-methyl-(6E)-nonenoic acid amid], the LD50 [4] is given as 47 mg and the “damage with frequent use and overdose” value [5] is given as “chronic gastritis and kidney and liver damage”.
In the case of “3E-nonenoic acid N-isobutylamide [Example 3]”, the sensorial profile [1, 6] is reported as “anaesthetizing, piquant taste builds up, impression of sweet palmond, slightly bitter”.
